Values of other authors, collected in patent publication US9572894B2, “Biodegradable particulate formulations” (The University of Iowa Research Foundation, priority 2010, dated 2017).

Tested on: gliomas
Conditions: ten daily i.t. injections

COc1cccc2c1C(=O)c1c(O)c3c(c(O)c1C2=O)C[C@@](O)(C(=O)CO)C[C@@H]3O[C@H]1C[C@H](N)[C@H](O)[C@H](C)O1 [doxorubicin]
reported toxicity: limited to headache | subjects with local regression: six of the ten
